Source: patent US10172777B2, “Phytospingosine derivative and composition containing same” (AMOREPACIFIC CORPORATION, priority 2015, dated 2019)

How the values were obtained:
[1] = Solubility test: precipitation behavior in aqueous solution kept at room temperature; type: physicochemical; design: key: ◯: Not precipitated; Δ: Not remarkably precipitated but fine particles are generated; X: Remarkably precipitated; settings: dissolved at 50 to 60° C.
Protocol: Thereafter, the resulting solution was kept at room temperature to check a precipitation behavior over time. As Comparative Example, the same experiment was performed using phytospingosine.

[2] = tested on: Aspergillus niger (A. niger); assay: Antibacterial test (MIC, double dilution in 96-well plate); type: cell-based; settings: P. ovale medium, cultured 32 to 48 hours
Protocol: (§1) As six representative microbes (fungi, and bacteria) causing skin diseases, each of Malassezia globosa, Malassezia restricta, Candia albicans (C. albicans), Aspergillus niger (A. niger), Enterococcus faecalis, and Brevundimonas vesicularis was seeded in a P. ovale medium, and cultured at 32° C. for 3 days while stirring. The resulting culture broth was diluted with P. ovale at a density of 1.0×10^7 CFU/mL, and the diluted culture broth was used as a test bacterial solution. […] (1) 200 μL of the sample solution prepared in (2) was added to the first row of a 96-well plate. 100 μL of P. ovale was added to the other wells. (2) After the first row of the mixtures were thoroughly mixed, 100 μL of each of the mixtures was taken, added to the second row, and then thoroughly mixed, and 100 μL of each of the mixtures was again taken, and added to the third row. Thereafter, this procedure was repeated to perform a double dilution. (3) After each of the microbes were cultured for 32 to 48 hours, a degree of suspension was used to determine whether the bacteria were growing. […] When it was difficult to determine whether the bacteria were growing due to the opaque mixed solution, the growth of the bacteria was observed under a microscope.

[3] = tested on: Brevundimonas vesicularis; assay: as above; type: cell-based; settings: P. ovale medium, cultured 32 to 48 hours
Protocol: as §1

[4] = tested on: Candia albicans (C. albicans); assay: as above; type: cell-based; settings: P. ovale medium, cultured 32 to 48 hours
Protocol: as §1

Enterococcus faecalis = assay: as above; type: cell-based; settings: P. ovale medium, cultured 32 to 48 hours
Protocol: as §1

Malassezia globosa = assay: as above; type: cell-based; settings: P. ovale medium, cultured 32 to 48 hours
Protocol: as §1

Malassezia restricta = assay: as above; type: cell-based; settings: P. ovale medium, cultured 32 to 48 hours
Protocol: as §1

[5] = solvent isocetyl alcohol; cited from earlier work
[6] = 0.1% by weight in distilled water, 1 day
[7] = 0.1% by weight in distilled water, 7 days
[8] = 0.1% by weight in distilled water, 30 days
[9] = 1.0% by weight in distilled water, 1 day
[10] = 1.0% by weight in distilled water, 7 days
[11] = 1.0% by weight in distilled water, 30 days

| precipitation behavior over time [1, 6] | precipitation behavior over time [1, 7] | precipitation behavior over time [1, 8] | precipitation behavior over time [1, 9] | precipitation behavior over time [1, 10] | precipitation behavior over time [1, 11] | minimum inhibitory concentration (MIC) [2] | minimum inhibitory concentration (MIC) [3] | minimum inhibitory concentration (MIC) [4] | minimum inhibitory concentration (MIC) (Enterococcus faecalis) | minimum inhibitory concentration (MIC) (Malassezia globosa) | minimum inhibitory concentration (MIC) (Malassezia restricta) | Structure (SMILES) | content dissolved in isocetyl alcohol [5] |
| --- | --- | --- | --- | --- | --- | --- | --- | --- | --- | --- | --- | --- | --- |
| ◯ | ◯ | ◯ | ◯ | ◯ | ◯ | – | – | – | – | – | – | CCCCCCCCCCCCCC[C@@H](O)[C@@H](O)[C@H](CO)NCC1(O)OC[C@@H](O)[C@@H](O[C@H]2O[C@H](CO)[C@H](O)[C@H](O)[C@H]2O)[C@@H]1O (stereo partly shown) [Example 2] | – |
| Δ | X | X | X | X | X | 0.5 | <0.00097 | 0.0312 | 0.062 | 0.001954 | 0.001954 | CCCCCCCCCCCCCC[C@@H](O)[C@@H](O)[C@@H](N)CO [Comparative Example, phytospingosine] | approximately 1 % by weight |
| ◯ | ◯ | ◯ | ◯ | ◯ | ◯ | 0.25 | <0.00097 | 0.0019 | 0.0039 | 0.001954 | 0.001954 | CCCCCCCCCCCCCC[C@@H](O)[C@@H](O)[C@H](CO)NCC1(O)OC[C@@H](O)[C@@H](O[C@H]2O[C@H](CO)[C@@H](O)[C@H](O)[C@H]2O)[C@@H]1O (stereo partly shown) [Example 1] | – |
